# Source: patent US7026304B2, “2-alkylated-cyclodextrin derivatives: reversal agents for drug-induced neuromuscular block” (Akzo Nobel N.V., priority 2001, dated 2006)
# Read-outs that look alike come from different tables or passages of the source.
# Assays:
# [1] = system: steady-state neuromuscular block induced by the muscle relaxant rocuronium bromide (Roc); experiment: Reversal of neuromuscular blockade in anaesthetized guinea pigs in vivo; parameters: species or system guinea pig; conditions: for % max reversal / concentration at maximum reversal: anaesthetized guinea pigs, rocuronium bromide-induced steady-state block; for concentration at maximum reversal: dose at which % max reversal was reached; for ED50, dose producing 50% reversal of steady-state neuromuscular block: anaesthetized male Dunkin-Hartley guinea pigs, rocuronium bromide infusion to steady-state block of 85–90%, reversal agent i.v. in increasing doses
# Experimental: Reversal of Neuromuscular Blockade in Anaesthetized Guinea Pigs in vivo Male Dunkin-Hartley guinea pigs (bodyweight: 600–900 g) were anaesthetized by i.p. administration of 10 mg/kg pentobarbitone and 1000 mg/kg urethane. After tracheotomy, the animals were artificially ventilated using a Harvard small animal ventilator. A catheter was placed into the carotid artery for continuous monitoring of arterial blood pressure and the taking of blood samples for blood gas analysis. Heart rate was derived from the blood pressure signal. The sciatic nerve was stimulated (rectangular pulses of 0.5 ms duration at 10 s (0.1 Hz) intervals at a supramaximal voltage, using a Grass S88 Stimulator) and the force of M. gastrocnemius contractions was measured using a Grass FT03 force-displacement transducer. Contractions, blood pressure and heart rate were recorded on a multichannel Grass 7D recorder. Catheters were placed in both jugular veins. One catheter was used for the continuous infusion of a neuromuscular blocking agent. […] The other catheter was used for administration of increasing doses of the reversal agent. During continuous infusion of the neuromuscular blocking agent, single doses of increasing concentration of reversal agent were given.
# [2] = system: steady-state neuromuscular block induced by the muscle relaxant rocuronium bromide (Roc); conditions: anaesthetized guinea pigs, as already described in WO 01/12202, cited from earlier work; for ED50, dose producing 50% reversal of steady-state neuromuscular block: parent cyclodextrins for comparison; for % max reversal / dose at maximum reversal: parent cyclodextrins
Molecule,% max reversal [1] [%],concentration at maximum reversal [1],"ED50, dose producing 50% reversal of steady-state neuromuscular block [1] [µmol/kg]","ED50, dose producing 50% reversal of steady-state neuromuscular block [2] [µmol/kg]",% max reversal [2] [%],dose at maximum reversal [2]
"OCCOCCSCCCO[C@H]1[C@H]2O[C@H]3[C@H](O)[C@@H](OCCCSCCOCCO)[C@@H](O[C@H]4[C@H](O)[C@@H](OCCCSCCOCCO)[C@@H](O[C@H]5[C@H](O)[C@@H](OCCCSCCOCCO)[C@@H](O[C@H]6[C@H](O)[C@@H](OCCCSCCOCCO)[C@@H](O[C@H]7[C@H](O)[C@@H](OCCCSCCOCCO)[C@@H](O[C@H]8[C@H](O)[C@@H](OCCCSCCOCCO)[C@@H](O[C@@H]([C@@H]1O)[C@@H](CO)O2)O[C@@H]8CO)O[C@@H]7CO)O[C@@H]6CO)O[C@@H]5CO)O[C@@H]4CO)O[C@@H]3CO [Example 10, Heptakis per-2-O-(9-hydroxy-7-oxa-4-thia-nonyl)-β-cyclodextrin]",72,(12) μmol · kg^−1,5.6,,,
OC[C@H]1O[C@@H]2O[C@H]3[C@H](O)[C@@H](O)[C@@H](O[C@H]4[C@H](O)[C@@H](O)[C@@H](O[C@H]5[C@H](O)[C@@H](O)[C@@H](O[C@H]6[C@H](O)[C@@H](O)[C@@H](O[C@H]7[C@H](O)[C@@H](O)[C@@H](O[C@H]8[C@H](O)[C@@H](O)[C@@H](O[C@H]1[C@H](O)[C@H]2O)O[C@@H]8CO)O[C@@H]7CO)O[C@@H]6CO)O[C@@H]5CO)O[C@@H]4CO)O[C@@H]3CO [β-cyclodextrin],,,,20,93,(113) μmol · kg^−1
OC[C@H]1O[C@@H]2O[C@H]3[C@H](O)[C@@H](O)[C@@H](O[C@H]4[C@H](O)[C@@H](O)[C@@H](O[C@H]5[C@H](O)[C@@H](O)[C@@H](O[C@H]6[C@H](O)[C@@H](O)[C@@H](O[C@H]7[C@H](O)[C@@H](O)[C@@H](O[C@H]8[C@H](O)[C@@H](O)[C@@H](O[C@H]9[C@H](O)[C@@H](O)[C@@H](O[C@H]1[C@H](O)[C@H]2O)O[C@@H]9CO)O[C@@H]8CO)O[C@@H]7CO)O[C@@H]6CO)O[C@@H]5CO)O[C@@H]4CO)O[C@@H]3CO [γ-cyclodextrin],,,,4,104,(47) μmol · kg^−1
"Octakis per-2-O-(3-carboxybenzyl)-γ-cyclodextrin, Na salt [Example 2]",104,(4.8) μmol · kg^−1,0.38,,,
